Data taken from patent US20120270237A9, “METHODS FOR THE IDENTIFICATION OF KINASE INTERACTING MOLECULES AND FOR THE PURIFICATION OF KINASE PROTEINS” (Cellzone AG, priority 2009, published 2012).

Experiments:
Test in all cases: Kinobeads competition binding, HeLa Placenta lysate mix
Parameters in all cases: capturing and identification of kinases from mixed HeLa placenta lysates; endogenous in cells; host or cells: HeLa cells mixed with placenta tissue lysate
Conditions in all cases: 10 μM free compound
PHKg2 = target: T1, PHKg2 (Homo sapiens, UniProt P15735)
T1 sequence (P15735 1-406): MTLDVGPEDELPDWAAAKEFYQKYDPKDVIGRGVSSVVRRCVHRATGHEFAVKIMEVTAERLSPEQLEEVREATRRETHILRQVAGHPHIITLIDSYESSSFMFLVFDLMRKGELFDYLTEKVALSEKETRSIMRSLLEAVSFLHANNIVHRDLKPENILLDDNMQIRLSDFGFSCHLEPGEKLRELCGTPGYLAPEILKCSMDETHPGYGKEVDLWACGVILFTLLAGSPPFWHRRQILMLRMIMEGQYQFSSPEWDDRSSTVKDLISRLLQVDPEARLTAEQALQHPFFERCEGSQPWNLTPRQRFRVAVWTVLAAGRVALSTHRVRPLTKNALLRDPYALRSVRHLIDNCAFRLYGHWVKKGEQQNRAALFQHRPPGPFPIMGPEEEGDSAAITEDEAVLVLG
Protocol: (§1) To one aliquot of cell lysate 10 μM of the free compound (FIG. 3, CZC31326) was added and allowed to bind to proteins in the lysate. Then the affinity matrix with the immobilized compound was added to capture proteins that were not interacting with the previously added free compound. Beads were separated from the lysate and bead bound proteins were eluted in SDS sample buffer and subsequently separated by SDS-Polyacrylamide gel electrophoresis (FIG. 10). Suitable gel bands were cut out and subjected to in-gel proteolytic digestion with trypsin. The second lysate aliquot was processed identically, however no free compound was added (DMSO solvent control). Peptides originating from samples 1 and 2 were labeled with iTRAQ reagents (iTRAQ 114 and iTRAQ 117) and the combined samples were analyzed with a nano-flow liquid chromatography system coupled online to a tandem mass spectrometer (LC-MS/MS) experiment followed by iTRAQ reporter ion quantification in the MS/MS spectra as described in Example 2.

PLK1 = PLK1 (Homo sapiens, UniProt P53350)
Protocol: as §1

MLK4 = MLK4 (Homo sapiens, UniProt Q5TCX8)
Protocol: as §1

PKCa = PKCa (Homo sapiens, UniProt P17252)
Protocol: as §1

RSK2 = RSK2 (Homo sapiens, UniProt P51812)
Protocol: as §1

MST1 = target: T2, MST1 (Homo sapiens, UniProt Q13043)
T2 sequence (Q13043 1-487): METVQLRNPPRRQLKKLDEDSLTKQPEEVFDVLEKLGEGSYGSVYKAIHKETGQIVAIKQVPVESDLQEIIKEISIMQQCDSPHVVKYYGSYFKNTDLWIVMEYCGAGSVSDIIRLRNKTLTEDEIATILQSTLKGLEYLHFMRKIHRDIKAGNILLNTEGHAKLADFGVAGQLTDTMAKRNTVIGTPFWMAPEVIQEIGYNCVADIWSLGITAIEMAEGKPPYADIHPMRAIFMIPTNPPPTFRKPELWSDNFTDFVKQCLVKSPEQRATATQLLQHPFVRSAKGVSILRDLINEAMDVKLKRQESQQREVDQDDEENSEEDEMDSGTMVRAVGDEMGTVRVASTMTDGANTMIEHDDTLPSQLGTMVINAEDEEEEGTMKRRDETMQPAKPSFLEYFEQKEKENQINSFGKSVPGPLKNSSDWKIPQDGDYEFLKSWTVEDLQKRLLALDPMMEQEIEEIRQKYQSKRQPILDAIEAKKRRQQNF
Protocol: as §1

SYK = SYK (Homo sapiens, UniProt P43405)
Protocol: as §1

SLK = SLK (Homo sapiens, UniProt Q9H2G2)
Protocol: as §1

PYK2 = PYK2 (Homo sapiens, UniProt Q14289)
Protocol: as §1

PKN2 = PKN2 (Homo sapiens, UniProt Q16513)
Protocol: as §1

PKN2, sequence (Q16513 whole entry): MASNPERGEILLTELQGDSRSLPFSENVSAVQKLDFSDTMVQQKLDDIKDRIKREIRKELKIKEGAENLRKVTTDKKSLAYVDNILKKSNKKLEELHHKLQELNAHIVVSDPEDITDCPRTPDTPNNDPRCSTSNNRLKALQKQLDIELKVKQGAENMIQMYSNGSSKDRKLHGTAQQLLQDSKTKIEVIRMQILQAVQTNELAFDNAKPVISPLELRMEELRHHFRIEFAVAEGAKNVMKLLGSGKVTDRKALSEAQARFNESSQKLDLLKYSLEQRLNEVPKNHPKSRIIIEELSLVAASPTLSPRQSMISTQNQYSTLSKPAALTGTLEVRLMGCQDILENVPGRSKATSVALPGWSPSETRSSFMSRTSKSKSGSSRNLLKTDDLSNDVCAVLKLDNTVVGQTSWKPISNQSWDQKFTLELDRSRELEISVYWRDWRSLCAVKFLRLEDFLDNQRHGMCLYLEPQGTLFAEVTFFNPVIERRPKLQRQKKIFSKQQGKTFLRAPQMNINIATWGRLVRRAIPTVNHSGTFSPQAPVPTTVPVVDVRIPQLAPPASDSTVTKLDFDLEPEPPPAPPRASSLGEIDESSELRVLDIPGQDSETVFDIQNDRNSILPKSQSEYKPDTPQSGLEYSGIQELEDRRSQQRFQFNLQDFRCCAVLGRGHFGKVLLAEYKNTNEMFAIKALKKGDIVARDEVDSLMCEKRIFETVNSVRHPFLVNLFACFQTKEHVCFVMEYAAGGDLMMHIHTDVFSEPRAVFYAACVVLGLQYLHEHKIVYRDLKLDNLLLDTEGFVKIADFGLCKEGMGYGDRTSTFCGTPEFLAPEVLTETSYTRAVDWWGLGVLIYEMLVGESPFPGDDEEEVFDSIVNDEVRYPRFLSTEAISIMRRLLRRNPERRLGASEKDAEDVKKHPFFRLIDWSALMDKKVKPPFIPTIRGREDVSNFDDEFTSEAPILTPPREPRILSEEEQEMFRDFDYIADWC
MLK4, sequence (Q5TCX8 whole entry): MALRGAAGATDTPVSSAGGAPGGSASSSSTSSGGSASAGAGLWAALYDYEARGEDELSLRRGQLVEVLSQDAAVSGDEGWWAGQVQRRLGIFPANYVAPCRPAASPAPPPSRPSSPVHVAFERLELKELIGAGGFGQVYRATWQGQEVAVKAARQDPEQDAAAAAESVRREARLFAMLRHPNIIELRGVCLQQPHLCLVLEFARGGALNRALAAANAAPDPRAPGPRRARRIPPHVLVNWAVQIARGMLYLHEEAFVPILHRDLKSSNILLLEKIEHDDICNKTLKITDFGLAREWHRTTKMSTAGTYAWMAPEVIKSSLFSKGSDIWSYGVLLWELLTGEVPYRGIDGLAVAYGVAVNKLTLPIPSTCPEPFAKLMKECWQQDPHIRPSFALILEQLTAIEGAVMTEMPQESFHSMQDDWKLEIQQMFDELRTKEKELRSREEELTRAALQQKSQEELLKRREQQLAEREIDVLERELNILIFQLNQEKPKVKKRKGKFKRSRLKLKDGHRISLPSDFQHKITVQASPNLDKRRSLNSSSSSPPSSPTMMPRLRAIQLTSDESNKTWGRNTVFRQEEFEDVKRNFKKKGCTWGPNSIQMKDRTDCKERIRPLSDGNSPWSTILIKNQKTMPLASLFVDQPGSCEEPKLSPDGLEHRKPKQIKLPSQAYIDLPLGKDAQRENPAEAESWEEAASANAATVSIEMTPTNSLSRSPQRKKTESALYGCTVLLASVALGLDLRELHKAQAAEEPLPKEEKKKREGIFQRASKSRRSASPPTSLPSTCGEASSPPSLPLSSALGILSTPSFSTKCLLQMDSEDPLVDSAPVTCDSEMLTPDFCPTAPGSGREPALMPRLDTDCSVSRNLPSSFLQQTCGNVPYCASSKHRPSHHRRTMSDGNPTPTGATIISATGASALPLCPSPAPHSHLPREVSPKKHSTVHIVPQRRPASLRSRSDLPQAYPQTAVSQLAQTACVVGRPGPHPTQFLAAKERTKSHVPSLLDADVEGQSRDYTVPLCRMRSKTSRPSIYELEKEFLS
PLK1, sequence (P53350 whole entry): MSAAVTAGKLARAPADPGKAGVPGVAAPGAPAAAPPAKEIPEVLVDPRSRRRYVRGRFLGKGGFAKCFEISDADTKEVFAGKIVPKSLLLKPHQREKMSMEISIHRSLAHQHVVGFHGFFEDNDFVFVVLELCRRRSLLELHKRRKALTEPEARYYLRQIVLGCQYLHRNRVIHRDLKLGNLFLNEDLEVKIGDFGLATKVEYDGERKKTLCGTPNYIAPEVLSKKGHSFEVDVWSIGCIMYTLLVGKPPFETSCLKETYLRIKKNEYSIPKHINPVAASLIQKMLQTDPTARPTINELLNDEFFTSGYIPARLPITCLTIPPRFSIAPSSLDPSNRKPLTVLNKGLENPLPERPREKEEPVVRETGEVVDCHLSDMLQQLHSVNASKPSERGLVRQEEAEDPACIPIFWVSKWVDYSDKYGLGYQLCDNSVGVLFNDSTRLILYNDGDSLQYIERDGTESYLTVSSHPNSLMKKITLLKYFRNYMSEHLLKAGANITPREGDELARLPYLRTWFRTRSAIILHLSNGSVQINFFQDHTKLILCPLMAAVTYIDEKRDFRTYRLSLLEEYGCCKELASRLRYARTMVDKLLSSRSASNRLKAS
RSK2, sequence (P51812 whole entry): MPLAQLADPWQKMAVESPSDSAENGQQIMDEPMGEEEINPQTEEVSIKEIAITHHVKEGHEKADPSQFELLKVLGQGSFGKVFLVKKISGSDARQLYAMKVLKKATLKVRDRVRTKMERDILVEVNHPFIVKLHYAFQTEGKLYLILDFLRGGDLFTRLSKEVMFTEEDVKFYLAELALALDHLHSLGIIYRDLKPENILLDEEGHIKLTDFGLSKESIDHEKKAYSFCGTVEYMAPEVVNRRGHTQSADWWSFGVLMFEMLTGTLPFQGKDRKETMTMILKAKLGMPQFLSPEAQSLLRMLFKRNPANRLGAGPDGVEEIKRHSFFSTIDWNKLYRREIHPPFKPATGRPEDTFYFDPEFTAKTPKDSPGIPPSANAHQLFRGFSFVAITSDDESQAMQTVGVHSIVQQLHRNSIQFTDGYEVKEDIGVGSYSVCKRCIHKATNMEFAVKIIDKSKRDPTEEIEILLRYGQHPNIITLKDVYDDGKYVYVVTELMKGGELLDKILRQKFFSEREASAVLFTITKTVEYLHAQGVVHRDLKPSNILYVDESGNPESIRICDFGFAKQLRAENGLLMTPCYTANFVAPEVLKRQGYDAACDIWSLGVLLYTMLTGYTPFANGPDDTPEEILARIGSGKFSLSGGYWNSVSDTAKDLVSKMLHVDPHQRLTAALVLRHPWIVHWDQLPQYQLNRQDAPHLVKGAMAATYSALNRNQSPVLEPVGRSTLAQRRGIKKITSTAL
PYK2, sequence (Q14289 whole entry): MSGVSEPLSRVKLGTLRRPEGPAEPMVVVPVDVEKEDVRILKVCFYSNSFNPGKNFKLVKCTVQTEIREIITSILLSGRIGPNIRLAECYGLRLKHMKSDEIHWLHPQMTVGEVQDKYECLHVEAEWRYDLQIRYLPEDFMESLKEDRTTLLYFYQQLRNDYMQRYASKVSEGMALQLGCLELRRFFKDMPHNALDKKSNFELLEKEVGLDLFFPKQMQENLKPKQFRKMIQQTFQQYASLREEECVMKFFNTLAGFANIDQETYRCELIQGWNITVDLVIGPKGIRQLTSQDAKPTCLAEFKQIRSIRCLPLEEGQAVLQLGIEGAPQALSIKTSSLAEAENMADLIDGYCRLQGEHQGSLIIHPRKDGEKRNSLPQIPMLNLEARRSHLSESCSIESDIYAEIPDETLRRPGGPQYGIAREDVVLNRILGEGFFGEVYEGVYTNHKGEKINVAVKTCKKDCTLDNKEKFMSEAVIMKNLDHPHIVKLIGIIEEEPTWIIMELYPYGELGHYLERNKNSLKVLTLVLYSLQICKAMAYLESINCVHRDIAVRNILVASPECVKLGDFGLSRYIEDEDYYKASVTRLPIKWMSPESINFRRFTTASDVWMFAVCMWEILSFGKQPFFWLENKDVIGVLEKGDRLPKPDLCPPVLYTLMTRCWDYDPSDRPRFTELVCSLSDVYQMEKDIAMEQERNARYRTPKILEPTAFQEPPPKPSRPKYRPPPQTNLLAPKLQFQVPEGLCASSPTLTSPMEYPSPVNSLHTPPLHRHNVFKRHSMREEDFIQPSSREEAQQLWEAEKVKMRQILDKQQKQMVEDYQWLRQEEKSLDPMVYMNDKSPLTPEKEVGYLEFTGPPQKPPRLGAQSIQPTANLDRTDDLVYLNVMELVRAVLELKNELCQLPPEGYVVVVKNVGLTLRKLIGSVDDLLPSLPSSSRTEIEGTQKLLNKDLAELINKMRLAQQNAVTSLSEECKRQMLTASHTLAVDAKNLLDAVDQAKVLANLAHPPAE

CS(=O)(=O)Nc1ccccc1Nc1nc(Nc2cccc(OCCN)c2)ncc1Cl [CZC31326, N-(2-(2-(3-(2-aminoethoxy)phenylamino)-5-chloropyrimidin-4-ylamino)phenyl)methanesulfonamide]
inhibition at 10 µM (PHKg2): 89.9%
inhibition at 10 µM (PLK1): 94.7%
inhibition at 10 µM (MLK4): 88.9%
inhibition at 10 µM (PKCa): 94.9%
inhibition at 10 µM (RSK2): 96%
Competition % (MST1): 94.6%
Competition % (SYK): 93.4%
inhibition at 10 µM (SLK): 93.2%
inhibition at 10 µM (PYK2): 92.7%
inhibition at 10 µM (PKN2): 94%
